Patent US20160115540A1, “PRODRUGS AND DRUGS” (Biogen MA Inc., priority 2013, published 2016)
Where a name gives a salt, the structure may show the parent alone.

Tested on: kidney
Test: Transcriptional profiling on Affymetrix GeneChips, single dose, naïve mice: kidney
Format: in vivo, C57BL/6 mice
Details: for FC: 100DMF-vs-Veh, fold change of the probe set/gene named in the row (Affymetrix, naïve single dose); for Number of differentially expressed genes identified: Kidney: Naïve, Single Dose
Description: Treated mice were sacrificed at 2, 7, or 12 hours. Tissues (liver, spleen, kidney, jejunum, cortex, hippocampus, striatum and whole blood) were collected and analyzed by transcriptional profiling on mouse Affymetrix GeneChips.
Tissues (liver, spleen, kidney, jejunum, cortex, hippocampus, striatum and whole blood) were collected and analyzed by transcriptional profiling on mouse Affymetrix GeneChips.
Animals were exposed to CO2 and whole blood collected via cardiac puncture. Two 100 μl aliquots of whole blood were collected in 1.5 mL microcentrifuge tubes and snap frozen in liquid nitrogen. Peripheral (liver, spleen, kidney and jejunum) and CNS brain (cerebellum, hippocampus, striatum and cortex) tissues were harvested and snap frozen in liquid nitrogen, with special care taken to collect tissues of similar size and from the same location. All samples were stored at −80° C. until RNA extraction was conducted.
For RNA preparation, frozen tissues were placed in 2 mL RNAse-free 96-well blocks with 1.5 mL QIAzol Lysis Reagent (QIAgen) and a 3.2 mm stainless steel bead (BioSpec Products, Bartlesville, Okla.). Tissues were disrupted for four cycles of 45 seconds in a Mini-Beadbeater (Biospec Products). RNA was extracted in chloroform and the aqueous phase was mixed with an equal volume of 70% ethanol. Extracted RNA was applied to RNeasy 96 plates and purified by the spin method according to the manufacturer's protocol (RNeasy 96 Universal Tissue Protocol, QIAgen, Hilden Germany).
Automated sample amplifications and biotin labelings were carried out using the NuGEN Ovation RNA Amplification system V2 (Cat #3100), Ovation WB reagent (Cat #1300) and Encore Biotin module (Cat #4200) (NuGEN Technologies, Inc, San Carlos, Calif.) according to manufacturer's recommendations using an Arrayplex automated liquid handler (Beckman Coulter, Indianapolis, Ind.). Two micrograms of biotin labeled sscDNA probe were hybridized to Affymetrix GeneChip Affymetrix HT_MG-430_PM plate arrays with modified conditions as described in Allaire et al. Washing and staining of the hybridized arrays were completed as described in the GeneChip Expression analysis technical manual for HT plate arrays using the Genechip® Array Station (Affymetrix, Santa Clara, Calif.) with modifications as described in Allaire et al. The processed GeneChip® plate arrays were scanned using GeneTitan scanner (Affymetrix, Santa Clara, Calif.).
Affymetrix scans were subject to quality control (QC) measures. These tests included a visual inspection of the distribution of raw signal intensities and an assessment of RNA degradation, relative log expression (RLE), and normalized unsealed standard error (NUSE). All sample scans that passed these QC metrics were included in the analysis.
All CEL files were subjected to GC-content-based Robust Multi-array Average (GCRMA) normalization (version 2.20.0) (Irizarry R A, et al. Nucleic Acids Res 2003; 31:e15; Li C, et al. Genome Biol 2001; 2:[…]0032). Expression levels were log (base 2) transformed.
All calculations and analyses were carried out using R (version 2.11.1) and Bioconductor computational tools (Gentleman R. Springer Science+Business Media 2005).

COC(=O)/C=C/C(=O)OC [DMF, dimethyl fumarate] was tested, and the “FC Tmem88b 1436974_PM_at” value (100 DMF-vs-Veh, 2 h) was −2.24, the “FC Tnfaip3 1433699_PM_at” value (100 DMF-vs-Veh, 2 h) was −1.83 and the “FC Tnfsf10 1439680_PM_at” value (100 DMF-vs-Veh, 2 h) was −1.52. The “FC Trim7 1439352_PM_at” value (100 DMF-vs-Veh, 2 h) was −1.54, the “FC Txnrd1 1421529_PM_a_at” value (100 DMF-vs-Veh, 2 h) was 1.53 and the “FC Txnrd1 (1424487_PM_x_at)” value (100 DMF-vs-Veh, 2 h) was 1.99. The “FC Ubiad1 1424213_PM_at” value (100 DMF-vs-Veh, 2 h) was −1.61, the “FC Ubxn7 1435912_PM_at” value (100 DMF-vs-Veh, 2 h) was 1.51 and the “FC Vps37b 1424380_PM_at” value (100 DMF-vs-Veh, 2 h) was 1.56. For the same molecule, the “FC Zbtb2 1434901_PM_at” value (100 DMF-vs-Veh, 2 h) was 2.52, the “FC Zfp30 1449813_PM_at” value (100 DMF-vs-Veh, 2 h) was −1.55 and the “FC Zfp39 1441198_PM_at” value (100 DMF-vs-Veh, 2 h) was −1.64. The “FC Zfp93 1418955_PM_at” value (100 DMF-vs-Veh, 2 h) was −1.74, the “FC Zfp189 1425287_PM_at” value (100 DMF-vs-Veh, 2 h) was 1.51 and the “FC Zfp295 1425305_PM_at” value (100 DMF-vs-Veh, 2 h) was 2.68. The “FC Zfp295 1441973_PM_at” value (100 DMF-vs-Veh, 2 h) was 2.08, the “FC Zfp759 1452623_PM_at” value (100 DMF-vs-Veh, 2 h) was −1.65 and the “FC Zswim6 1434967_PM_at” value (100 DMF-vs-Veh, 2 h) was 1.63. The FC (7 h) was −1.82, the FC (12 h) was 1.82 and the “FC Adm (1416077_PM_at)” value (KIDNEY, 100 DMF-vs-Veh, 2 h) was 1.56. The “FC Bhlhe40 (1418025_PM_at)” value (KIDNEY, 100 DMF-vs-Veh, 2 h) was 1.59, the “FC Cyr61 (1416039_PM_x_at)” value (KIDNEY, 100 DMF-vs-Veh, 2 h) was 2.43 and the “FC Dbf4 (1418334_PM_at)” value (KIDNEY, 100 DMF-vs-Veh, 2 h) was 2.08. The “FC Ddit3 (1417516_PM_at)” value (KIDNEY, 100 DMF-vs-Veh, 2 h) was 3.97, the “FC Dnaja1 (1416288_PM_at)” value (KIDNEY, 100 DMF-vs-Veh, 2 h) was 1.69 and the “FC Dnaja4 (1418591_PM_at)” value (KIDNEY, 100 DMF-vs-Veh, 2 h) was 2.05. The “FC Dnaja4 (1418592_PM_at)” value (KIDNEY, 100 DMF-vs-Veh, 2 h) was 1.87, the “FC Dnajb1 (1416755_PM_at)” value (KIDNEY, 100 DMF-vs-Veh, 2 h) was 3.03 and the “FC Dnajb1 (1416756_PM_at)” value (KIDNEY, 100 DMF-vs-Veh, 2 h) was 4.36. The “FC Dusp6 (1415834_PM_at)” value (KIDNEY, 100 DMF-vs-Veh, 2 h) was 1.52, the “FC Dusp16 (1418401_PM_a_at)” value (KIDNEY, 100 DMF-vs-Veh, 2 h) was 1.50 and the “FC Egr1 (1417065_PM_at)” value (KIDNEY, 100 DMF-vs-Veh, 2 h) was 4.60. The “FC Gclm 1418627_PM_at” value (KIDNEY, 100 DMF-vs-Veh, 2 h) was 1.51, the “FC Hbegf (1418349_PM_at)” value (KIDNEY, 100 DMF-vs-Veh, 2 h) was 2.03 and the “FC Hbegf (1418350_PM_at)” value (KIDNEY, 100 DMF-vs-Veh, 2 h) was 2.21. For the same molecule, the “FC Ier2 (1416442_PM_at)” value (KIDNEY, 100 DMF-vs-Veh, 2 h) was 1.75, the “FC Ifrd1 (1416067_PM_at)” value (KIDNEY, 100 DMF-vs-Veh, 2 h) was 1.52 and the “FC Igfbp1 (1418918_PM_at)” value (KIDNEY, 100 DMF-vs-Veh, 2 h) was −2.89. The “FC Nab2 (1417930_PM_at)” value (KIDNEY, 100 DMF-vs-Veh, 2 h) was 2.74, the “FC Nasp (1416042_PM_s_at)” value (KIDNEY, 100 DMF-vs-Veh, 2 h) was 1.62 and the “FC Nfil3 (1418932_PM_at)” value (KIDNEY, 100 DMF-vs-Veh, 2 h) was 2.29. For the same molecule, the “FC Pmaip1 (1418203_PM_at)” value (KIDNEY, 100 DMF-vs-Veh, 2 h) was 1.68, the “FC Ppp2r3c (1417479_PM_at)” value (KIDNEY, 100 DMF-vs-Veh, 2 h) was 1.59 and the “FC Rcan1 (1416600_PM_a_at)” value (KIDNEY, 100 DMF-vs-Veh, 2 h) was 1.51. The “FC Sertad1 (1417406_PM_at)” value (KIDNEY, 100 DMF-vs-Veh, 2 h) was 2.06, the “FC Sirt1 (1418640_PM_at)” value (KIDNEY, 100 DMF-vs-Veh, 2 h) was 1.68 and the “FC Slc22a4 (1417639_PM_at)” value (KIDNEY, 100 DMF-vs-Veh, 2 h) was −1.51. The “FC Tnfrsf12a 1418571_PM_at” value (KIDNEY, 100 DMF-vs-Veh, 2 h) was 2.37, the “FC Tnfrsf12a 1418572_PM_x_at” value (KIDNEY, 100 DMF-vs-Veh, 2 h) was 2.33 and the “FC Tnnc1 (1418370_PM_at)” value (KIDNEY, 100 DMF-vs-Veh, 2 h) was 1.89. For the same molecule, the “FC Txnip (1415997_PM_at)” value (KIDNEY, 100 DMF-vs-Veh, 2 h) was −1.73, the “FC Zfand2a (1415940_PM_at)” value (KIDNEY, 100 DMF-vs-Veh, 2 h) was 1.55 and the “FC Zfand5 (1416084_PM_at)” value (KIDNEY, 100 DMF-vs-Veh, 2 h) was 1.63. The “FC Zfand5 (1416085_PM_s_at)” value (KIDNEY, 100 DMF-vs-Veh, 2 h) was 1.68, the “Number of genes, DMF Only / MMF Only” value (Kidney) was 61 and the “Asns (1451095_PM_at) differential expression” value (Kidney, 2 hr) was 3.03. For the same molecule, the “Cbr3 (1427912_PM_at) differential expression” value (Kidney, 2 hr) was 3.04, the “Gdf15 (1418949_PM_at) differential expression” value (Kidney, 2 hr) was 5.39 and the “Mthfd2 (1419253_PM_at) differential expression” value (Kidney, 2 hr) was 2.06. The “Number of differentially expressed genes identified: Kidney” value (“Number of differentially” for short) (100 mpk DMF-vs-100 mpk MMF, 2 h after last dosing) was 1, the “Number of differentially” value (100 mpk DMF-vs-100 mpk MMF, 7 h after last dosing) was 1 and the “Number of differentially” value (100 mpk DMF-vs-100 mpk MMF, 12 h after last dosing) was 2. For the same molecule, the “Number of differentially” value (100 mpk, vs Vehicle, 2 h after last dosing) was 331, the “Number of differentially” value (100 mpk, vs Vehicle, 7 h after last dosing) was 93 and the “Number of differentially” value (100 mpk, vs Vehicle, 12 h after last dosing) was 100. For the same molecule, the “Asns (1451095_PM_at) differential expression” value (kidney, 7 hr) was 1.92, the “Cbr3 (1427912_PM_at) differential expression” value (kidney, 7 hr) was 5.88 and the “Gdf15 (1418949_PM_at) differential expression” value (kidney, 7 hr) was 1.75. For the same molecule, the “Mthfd2 (1419253_PM_at) differential expression” value (kidney, 7 hr) was 1.65, the “Asns (1451095_PM_at) differential expression” value (kidney, 12 hr) was 2.65 and the “Cbr3 (1427912_PM_at) differential expression” value (kidney, 12 hr) was 5.67. For the same molecule, the “Gdf15 (1418949_PM_at) differential expression” value (kidney, 12 hr) was 1.77, the “Mthfd2 (1419253_PM_at) differential expression” value (kidney, 12 hr) was 1.60 and the “FC 1439640_PM_at (no gene symbol)” value (kidney, 100DMF-vs-100MMF, 2 h) was 1.54. For the same molecule, the “FC Nr1d1 (1426464_PM_at)” value (kidney, 100DMF-vs-100MMF, 7 h) was 1.56, the “FC 1441333_PM_at (no gene symbol)” value (kidney, 100DMF-vs-100MMF, 12 h) was 1.91 and the “FC C76628 (1420187_PM_at)” value (kidney, 100DMF-vs-100MMF, 12 h) was 1.59.
